{"source": "patent US20250170239A1", "about": "“CELLULAR REPROGRAMMING BY TARGETING THE GOLGI APPARATUS” (MUSC Foundation for Research Development, priority 2023, published 2025)", "key": {"[1]": {"conditions": "in culture; cited from earlier work"}, "Pmel CD8+ T cells": {"test_system": "Pmel CD8+ T cells", "assay": "H2O2-induced oxidative stress and antioxidant capacity in Pmel T cells", "procedure": "(FIG. 20A) Cells treated for 12-hours with H2O2 (50 mM). FACS analysis quantifying 7-AAD+AnnexinV+ and 7−AAD−AnnexinV− populations (n=3). FIG. 20B, mRNA levels of GCLM and GCLC. (FIG. 20C) Measurements of surface thiols by AlexaFluor-488 C5 Maleimide (n=3) and intracellular glutathione by ThiolTracker Violet (n=4). […] (FIG. 20E) Fold increase in MFI for phosphorylated-PERK, phosphorylated-IRE1a, and ATF4 after 12-hr. incubation with 50 mM H2O2 (n=3). FIG. 20F, FACS quantification of cells expressing high phosphorylated-PERK levels after exhaustion assay (n=2). (FIG. 20G) Percentage of cells expressing high phosphorylated-PERK in Pmel cells overexpressing Cbs compared to Pmel cells transduced with control lentivirus (n=3). (FIG. 20H) Fold change in GM130 MFI in Pmel cells using exhaustion assay (n=3). (FIG. 20I) Cell viability and mitochondrial ROS following monensin treatment (1 mM). […] (FIG. 20K) GM130 MFI values in Pmel T cells overexpressing Cbs compared to control cells after transfer into tumor-bearing mice and TIL isolation after 7 days (n=4). (FIG. 20L) Pmel T cells cultured with B16-F10 supernatant and gp100, followed by FACS sorting for PD1+TIM3+ and PD1−TIM3− cells. Sorted cells stained with anti-Giantin antibody and analyzed for Golgi area via ImageStream. (FIG. 20M) FACS analysis of GM130 expression in PD1+TIM3+ and PD1−TIM3− populations. (FIG. 20N) Pmel cells treated with 1 mM monensin and analyzed for intracellular ROS (DCFDA). (FIG. 20O) FACS analysis of GM130 expression in Pmel cells treated with 50 mM H2O2 (6-hours). Data represent mean±SEM. Analyzed by two-sided Student's t-test or one-way ANOVA. ns, p-value >0.05; p-value *≤0.05; **≤0.01; ***≤0.001; ****≤0.0001."}, "Pmel T cells [2]": {"test_system": "Pmel T cells", "protocol": "On day 3, the cells were collected for RNA-sequencing analysis (n=3 independent samples). (FIG. 14A) Principle component analysis (PCA) of control versus H2S-treated samples. […] (FIG. 14E) Schematic of experimental design for cytokine and translation assays. (FIG. 14F) Pmel CD8+ T cells were activated for 3 days with gp100 and IL2+/−0.5 mM GYY4137. On day 3, the cells were washed and re-stimulated with gp100 for 4 hours, followed by measurement of cytokine production via FACS. (FIG. 14G) Active protein translation was assessed using Click-iT Plus OPP Alexa Fluor 647 Protein Synthesis Assay Kit (ThermoFisher) (n=3 independent samples) in Pmel T cells after re-stimulation (n=3 independent samples). (FIG. 14H) Levels of EIF2a, phosphorylated 4EBP1, and phosphorylated rS6 evaluated via FACS in Pmel T cells after re-stimulation (n=4 independent samples). (FIG. 14I) Pmel CD8+ T cells were activated for 2 days with gp100 and IL2 followed by transduction with either control lentivirus or CBS-expressing lentivirus. On day 5, the cells were washed and re-stimulated with gp100 for 4 hours. Quantification of protein translation assessed using Click-iT Plus OPP Alexa Fluor 647 Protein Synthesis Assay Kit and quantification intracellular cytokines assessed using FACS (n=3 independent samples). MFI represents mean fluorescence intensity.\nPmel T cells were re-stimulated with gp100 peptide (0.1 μg/mL) and Click-iT™ Plus OPP Alexa Fluor™ 647 Protein Synthesis Assay Kit (ThermoFisher Scientific #C10458) was used to measure protein translation using flow cytometry following the manufacturer's protocol."}, "Pmel T cells [3]": {"test_system": "Pmel T cells", "conditions": "activated in presence of H2S donor", "procedure": "Oxygen consumption rate (OCR) and extracellular acidification rate (ECAR) were determined using the Seahorse Xfe96 analyzer (Agilent Technologies, Santa Clara, CA). Briefly, T cells (0.5×10^6/well) were plated on a Cell-Tak coated Seahorse culture plate for 30 min. OCR, a measure of OXPHOS, was analyzed under basal condition, or in response to 1.0 μM oligomycin, 1.0 μM fluoro-carbonyl cyanide phenylhydrazone (FCCP) and 2 μM rotenone, plus 100 nM antimycin A. ECAR, a measure of glycolysis, was measured under basal conditions and in response to glucose (5.5 mM), Oligomycin (1.0 μM), and 2-deoxyglucose (2-DG) (100 mM). All reagents were purchased from Sigma-Aldrich, St. Louis, MO."}, "Prdx4 knockdown T cells": {"test_system": "Prdx4 knockdown T cells", "assay": "Prdx4 siRNA knockdown Pmel T cells under Golgi/oxidative stress", "assay_type": "cell-based, mouse", "protocol": "(FIG. 22A) Pmel T cells were activated for 3 days before treatment with vehicle or 50 mM H2O2 for 6 hrs. Prdx4-Golgi colocalization was assessed by PLA using mouse anti-Giantin and rabbit anti-Prdx4 antibodies. (FIG. 22B) Activated Pmel T cells treated with vehicle or 50 mM H2O2 for 6 hrs or 24 hrs with Monensin (1 mM). PLA assay was performed using anti-Giantin and anti-Prdx4 antibodies. (FIG. 22C) Experimental design using Prdx4-targeted siRNA to silence expression of Prdx4 in Pmel T cells. (FIG. 22D) GM130 expression assessed under control versus Monensin (1 μM) conditions in T cells treated with control-siRNA or Prdx4-siRNA. (FIG. 22E) GM130 expression assessed under control versus 50 mM H2O2 conditions in T cells treated with control-siRNA or Prdx4-siRNA+/−0.5 mM GYY4137. (FIG. 22F) Protein translation assessed in Pmel T cells activated+/−GYY4137 and treated with control-siRNA or Prdx4-siRNA. (FIG. 22G) GM130 expression in Pmel T cells treated with vehicle, GYY4137, or Catalase (10 μg/mL). (FIGS. 22H and 22I) Site directed mutagenesis performed to mutate cysteine-54 of the Prdx4 gene. Prdx4-targeted shRNA was used to knock down expression of Prdx4 in Jurkat T cells, followed by transfection with plasmid containing wildtype or mutated Prdx4. (FIG. 22I) GM130 expression assessed after treatment with 50 mM H2O2+/−GYY4137. (FIG. 22J) B16-F10 tumors were injected s.c. into flanks of Pmel mice and grown to ˜100 mm2. TILs and T cells from tumor-draining lymph nodes were isolated via Ficoll spin followed by magnetic bead positive selection. FACS analysis of Prdx4 expression in TILs gated on PD1loLag3lo vs PD1hiLag3hi. (FIG. 22K) Lentiviral supernatant was generated using GFP-tagged control plasmid or GFP-tagged Prdx4-overexpression plasmid. Pmel T cells were transduced with control or Prdx4 lentivirus. Pmel T cells overexpressing Prdx4 and control T cells were treated with H2O2 (50 mM) followed by staining with anti-GM130.\nGiven the delicate redox balance necessary for the native disulfide bonds, it was postulated that a localized mechanism for the detection and elimination of ROS produced during the oxidative folding process may require Prdx4. Thus, it was hypothesized that ER and Golgi network stress mitigated by H2S is mediated through the Prdx4 localization and activity in these organelles. First, it was established if Prdx4 also localizes within the Golgi apparatus in T cells using a proximity ligation assay (PLA), a tool that allows in situ detection of endogenous proteins with high specificity and sensitivity, with antibodies directed against Giantin (a conserved Golgi membrane protein) and Prdx4. […] Next, using siRNA targeting Prdx4, expression of Prdx4 in CD8+ Pmel T cells was knocked down (FIG. 22C, FIGS. 23A and 23B). The cells were then subjected to conditions of oxidative and Golgi stress in the presence or absence of H2S treatment. […] Then, to determine whether the protective effect of H2S on Golgi stress is dependent on the presence of Prdx4, Golgi stress was induced in the presence or absence of H2S with control (siCtl) and Prdx4 knockdown (siPrdx4) T cells."}, "Tet": {"test_system": "Tet", "conditions": "CD8+ T cells with or without 0.5 mM GYY4137", "protocol": "On day 3, the cells were collected and TET activity was assessed using nuclear protein extract from CD8+ T cells treated with or without 0.5 mM GYY4137."}, "[4]": {"test_system": "TILs isolated from B16-F10 tumors", "conditions": "expanded +/− GYY4137", "protocol": "To obtain tumor-infiltrating T cells (TILs) from subcutaneously established solid B16-F10 melanoma-bearing mice, tumors were excised, chopped finely using tweezers and scissors, and then digested with 2 mg/ml collagenase type IV (Stemcell Technologies, Vancouver, BC) for 45 min. The tumors were filtered through […] (BD Biosciences, San Jose, CA). The cell suspension was washed in culture medium twice by centrifugation at 1500 rpm for 10 min at 4° C. After the second wash, the cells were re-suspended in 6 ml PBS and layered carefully over 3 ml Ficoll-paque (GE Healthcare) followed by centrifugation at 1500 rpm for 30 min at room temperature. The enriched TILs obtained at the interface as a thin buffy layer were washed with PBS twice and finally re-suspended in FACS staining buffer for further staining procedures."}}, "note": "“Also recorded” adds a separate entry of the source."}
{"smiles": "C1COCCN1.COc1ccc(P(=S)(S)N2CCOCC2)cc1", "note": "(stereo not shown) [GYY4137]", "values": [{"measurement": "duration of sustained H2S release", "setting": "[1]", "value": "up to 7 days"}, {"measurement": "apoptotic cell death (7-AAD, AnnexinV)", "setting": "Pmel CD8+ T cells; 12-hours H2O2 (50 mM), +/− 0.5 mM GYY4137", "value": "significant decrease in apoptotic cell death"}, {"measurement": "expression of GCLC and GCLM (mRNA)", "setting": "Pmel CD8+ T cells; +/− 0.5 mM GYY4137", "value": "increased expression"}, {"measurement": "intracellular glutathione (iGSH)", "setting": "Pmel CD8+ T cells; ThiolTracker Violet", "value": "increase"}, {"measurement": "phosphorylation of 4EBP1", "setting": "Pmel T cells [2]; FACS after re-stimulation", "value": "increased phosphorylation of 4EBP1"}, {"measurement": "total EIF2α and phosphorylated S6 ribosomal protein", "setting": "Pmel T cells [2]; FACS after re-stimulation", "value": "increased total levels of EIF2α and phosphorylated levels of S6 ribosomal protein"}, {"measurement": "overall protein translation (OPP incorporation)", "setting": "Pmel T cells [2]; upon re-stimulation with cognate antigen", "value": "significantly enhanced upregulation of overall protein translation"}, {"measurement": "basal respiration", "setting": "Pmel T cells [3]", "value": "did not alter basal respiration"}, {"measurement": "maximal respiration", "setting": "Pmel T cells [3]", "value": "significant increase"}, {"measurement": "spare respiratory capacity (SRC)", "setting": "Pmel T cells [3]", "value": "significant increase"}, {"measurement": "GM130 expression under Golgi stress, control (siCtl) T cells", "setting": "Prdx4 knockdown T cells; 50 mM H2O2 +/− 0.5 mM GYY4137", "value": "prevented the decrease in GM130 expression"}, {"measurement": "GM130 expression under Golgi stress, Prdx4 knockdown (siPrdx4) T cells", "setting": "Prdx4 knockdown T cells; 50 mM H2O2 +/− 0.5 mM GYY4137, listed as H2S", "value": "protective effect was absent; also recorded: absent when Prdx4 was knocked down"}, {"measurement": "increase in protein translation, Prdx4 knockdown T cells", "setting": "Prdx4 knockdown T cells; +/− GYY4137", "value": "not observed"}, {"measurement": "Tet activity", "setting": "Tet", "value": "decrease of Tet activity"}, {"measurement": "GM130 expression", "setting": "[4]", "value": "significantly higher GM130 expression"}, {"measurement": "PD1 expression", "setting": "[4]", "value": "lower PD1 expression"}]}
